Earlier results in patent US20100317677A1, “Methods of Treating a Microbial Infection by Modulating RNase-L Expression and/or Activity” (priority 2007, published 2010).

Target: T1, RNase-L (Homo sapiens, UniProt Q05823)
T1 sequence (Q05823 1-741): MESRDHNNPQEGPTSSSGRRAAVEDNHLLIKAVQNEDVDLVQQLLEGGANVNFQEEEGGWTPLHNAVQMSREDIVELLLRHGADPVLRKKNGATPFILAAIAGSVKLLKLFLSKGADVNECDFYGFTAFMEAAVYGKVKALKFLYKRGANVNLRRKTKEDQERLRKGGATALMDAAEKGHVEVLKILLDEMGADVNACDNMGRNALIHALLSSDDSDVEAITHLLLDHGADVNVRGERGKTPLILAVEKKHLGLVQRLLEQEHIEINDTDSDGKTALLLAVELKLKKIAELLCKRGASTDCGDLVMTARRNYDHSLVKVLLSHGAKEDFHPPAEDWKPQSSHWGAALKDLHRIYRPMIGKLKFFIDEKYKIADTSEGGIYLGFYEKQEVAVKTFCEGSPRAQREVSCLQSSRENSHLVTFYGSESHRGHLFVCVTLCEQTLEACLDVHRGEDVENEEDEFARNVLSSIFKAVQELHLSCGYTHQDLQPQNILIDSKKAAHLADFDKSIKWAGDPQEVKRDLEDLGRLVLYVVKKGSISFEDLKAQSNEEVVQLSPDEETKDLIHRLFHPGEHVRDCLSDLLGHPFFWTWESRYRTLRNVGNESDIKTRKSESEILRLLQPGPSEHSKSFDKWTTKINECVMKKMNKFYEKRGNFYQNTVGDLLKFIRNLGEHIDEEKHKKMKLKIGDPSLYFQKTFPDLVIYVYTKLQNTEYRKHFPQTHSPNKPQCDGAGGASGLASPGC
Conditions: statement in words, cited from Thakur et al. 2007 and other literature

px5′A(2′p5′A)n [2-5A]
Effect on the activity of RNase-L: increases the activity of RNase-L
